Test results: patent US20200010482A1, “INHIBITORS OF BETA SECRETASE” (Janssen Pharmaceutica NV, priority 2017, published 2020)

Assays:
[1] = system: Abeta 1-42 produced and secreted by SKNBE2 cells expressing hAPP695; assay: Cellular αLisa assay in SKNBE2 cells, Abeta 1-42; assay type: cell-based, human; conditions: SKNBE2 cells expressing hAPP695, 18 hours incubation; for IC50: Homo sapiens, SKNBE2, 18 h, read-out: CELLULAR αLISA ASSAY IN SKNBE2 CELLS ABETA 42 PIC50 (converted)
Procedure: (§1) In two αLisa assays the levels of Abeta total and Abeta 1-42 produced and secreted into the medium of human neuroblastoma SKNBE2 cells are quantified. The assay is based on the human neuroblastoma SKNBE2 expressing the wild type Amyloid Precursor Protein (hAPP695). The compounds are diluted and added to these cells, incubated for 18 hours and then measurements of Abeta 1-42 and Abeta total are taken. Abeta total and Abeta 1-42 are measured by sandwich αLisa. αLisa is a sandwich assay using biotinylated antibody AbN/25 attached to streptavidin coated beads and antibody Ab4G8 or cAb42/26 conjugated acceptor beads for the detection of Abeta total and Abeta 1-42 respectively. In the presence of Abeta total or Abeta 1-42, the beads come into close proximity. The excitation of the donor beads provokes the release of singlet oxygen molecules that trigger a cascade of energy transfer in the acceptor beads, resulting in light emission. Light emission is measured after 1 hour incubation (excitation at […] and emission at 615 nm).
(§2) A best-fit curve is fitted by a minimum sum of squares method to the plot of % Controlmin versus compound concentration. From this an IC50 value (inhibitory concentration causing 50% inhibition of activity) can be obtained. • LC=Median of the low control values=Low control: cells preincubated without compound, without biotinylated Ab in the αLisa • HC=Median of the High control values=High Control: cells preincubated without compound
(§3) % Effect=100−[(sample−LC)/(HC−LC)*100]
(§4) % Control=(sample/HC)*100
(§5) % Controlmin=(sample−LC)/(HC−LC)*100

[2] = molecular target: T1, BACE1 (Homo sapiens, UniProt P56817); assay: BACE1 biochemical FRET based assay; conditions: recombinant BACE1 0.04 μg/ml, 20 μM substrate, 450 min, pH 5.0; for IC50: read-out: BIOCHEMICAL FRET BASED ASSAY pIC50 (converted)
T1 construct: recombinant BACE1 protein in a final concentration of 0.04 μg/ml
Description: (§6) This assay is a Fluorescence Resonance Energy Transfer Assay (FRET) based assay. The substrate for this assay is an APP derived 13 amino acids peptide that contains the ‘Swedish’ Lys-Met/Asn-Leu mutation of the amyloid precursor protein (APP) beta-secretase cleavage site. This substrate also contains two fluorophores: (7-methoxycoumarin-4-yl) acetic acid (Mca) is a fluorescent donor with excitation wavelength at 320 nm and emission at 405 nm and 2,4-Dinitrophenyl (Dnp) is a proprietary quencher acceptor. […] Upon cleavage by BACE1, the fluorophore Mca is separated from the quenching group Dnp, restoring the full fluorescence yield of the donor. The increase in fluorescence is linearly related to the rate of proteolysis.
Briefly in a 384-well format recombinant BACE1 protein in a final concentration of 0.04 μg/ml is incubated for 450 minutes at room temperature with 20 μM substrate in incubation buffer (50 mM Citrate buffer pH 5.0, 0.05% PEG) in the presence of compound or DMSO. Next the amount of proteolysis is directly measured by fluorescence measurement (excitation at 320 nm and emission at 405 nm) at different incubation times (0, 30, 60, 90, 120 and 450 min). For every experiment a time curve (every 30 min between 0 min and 120 min) is used to determine the time where we find the lowest basal signal of the high control. The signal at this time (Tx) is used to subtract from the signal at 450 min. Results are expressed in RFU, as difference between T450 and Tx.
(§7) A best-fit curve is fitted by a minimum sum of squares method to the plot of % Controlmin versus compound concentration. From this an IC50 value (inhibitory concentration causing 50% inhibition of activity) can be obtained. • LC=Median of the low control values=Low control: Reaction without enzyme • HC=Median of the High control values=High Control: Reaction with enzyme
as §3, §4, §5

[3] = system: Abeta total produced and secreted by SKNBE2 cells expressing hAPP695; assay: Cellular αLisa assay in SKNBE2 cells, Abeta total; assay type: cell-based, human; conditions: SKNBE2 cells expressing hAPP695, 18 hours incubation; for IC50: Homo sapiens, SKNBE2, 18 h, read-out: CELLULAR αLISA ASSAY IN SKNBE2 CELLS ABETA TOTAL pIC50 (converted)
Procedure: as §1, §2, §3, §4, §5

[4] = molecular target: T2, BACE2 (Homo sapiens, UniProt Q9Y5Z0); assay: BACE2 biochemical FRET based assay; conditions: recombinant BACE2 0.4 μg/ml, 10 μM substrate, 450 min, pH 5.0; for IC50: read-out: BIOCHEMICAL FRET BASED ASSAY pIC50 (converted)
T2 construct: recombinant BACE2 protein in a final concentration of 0.4 μg/ml
T2 sequence (Q9Y5Z0 63-518): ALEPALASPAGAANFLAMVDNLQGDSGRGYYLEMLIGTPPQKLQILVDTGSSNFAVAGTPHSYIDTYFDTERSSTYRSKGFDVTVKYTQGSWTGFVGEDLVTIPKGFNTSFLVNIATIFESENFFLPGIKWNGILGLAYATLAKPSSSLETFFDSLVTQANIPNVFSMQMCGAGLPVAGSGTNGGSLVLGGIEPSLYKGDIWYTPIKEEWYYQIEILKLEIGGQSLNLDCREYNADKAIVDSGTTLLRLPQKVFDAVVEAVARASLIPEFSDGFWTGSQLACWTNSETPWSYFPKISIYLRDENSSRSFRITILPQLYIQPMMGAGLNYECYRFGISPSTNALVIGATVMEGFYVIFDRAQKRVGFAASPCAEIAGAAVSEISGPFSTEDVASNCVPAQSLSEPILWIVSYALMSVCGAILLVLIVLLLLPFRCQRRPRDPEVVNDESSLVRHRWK
Description: as §6, with “assay” for “assay is an APP derived 13 amino acids peptide that”, “the beta-secretase,” for “BACE1,”
Briefly in a 384-well format recombinant BACE2 protein in a final concentration of 0.4 μg/ml is incubated for 450 minutes at room temperature with 10 μM substrate in incubation buffer (50 mM Citrate buffer pH 5.0, 0.05% PEG, no DMSO) in the absence or presence of compound. Next the amount of proteolysis is directly measured by fluorescence measurement at T=0 and T=450 (excitation at 320 nm and emission at 405 nm). Results are expressed in RFU (Relative Fluorescence Units), as difference between T450 and TO.
as §7, §3, §4, §5

T1 sequence (P56817 46-501): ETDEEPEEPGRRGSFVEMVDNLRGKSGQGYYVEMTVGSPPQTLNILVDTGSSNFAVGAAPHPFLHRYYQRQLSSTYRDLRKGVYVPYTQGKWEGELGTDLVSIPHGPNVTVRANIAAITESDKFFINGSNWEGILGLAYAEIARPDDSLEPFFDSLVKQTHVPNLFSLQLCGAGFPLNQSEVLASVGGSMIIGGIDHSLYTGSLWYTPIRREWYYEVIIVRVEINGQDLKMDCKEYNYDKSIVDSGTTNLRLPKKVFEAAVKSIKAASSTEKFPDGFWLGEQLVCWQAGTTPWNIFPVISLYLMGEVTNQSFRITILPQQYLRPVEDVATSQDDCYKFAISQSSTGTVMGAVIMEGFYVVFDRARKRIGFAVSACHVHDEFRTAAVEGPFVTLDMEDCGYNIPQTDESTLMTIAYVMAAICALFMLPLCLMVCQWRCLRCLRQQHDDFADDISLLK

| Structure (SMILES) | IC50 [1] | IC50 [2] | IC50 [3] | IC50 [4] | CELLULAR αLISA ASSAY IN SKNBE2 CELLS ABETA 42 PIC50 [1] | BIOCHEMICAL FRET BASED ASSAY pIC50 [2] | CELLULAR αLISA ASSAY IN SKNBE2 CELLS ABETA TOTAL pIC50 [3] | BIOCHEMICAL FRET BASED ASSAY pIC50 [4] |
| --- | --- | --- | --- | --- | --- | --- | --- | --- |
| COc1nccc2c1C[C@]1(c3ccccc3F)N=C(N)SC[C@@H]1C2 (racemic) [Compound 2] | 0.0537 µM | 0.158 µM | 0.0468 µM | 0.174 µM |  |  |  |  |
| COc1ncc(-c2ccccc2Cl)c2c1C[C@]1(c3ccc(F)cc3F)N=C(N)SC[C@@H]1C2 [Compound 52] |  |  |  |  | 7.96 | 8.38 | 7.88 | 7.35 |
| COc1ncc(-c2cccnc2)c2c1C[C@]1(c3ccc(F)cc3F)N=C(N)SC[C@@H]1C2 [Compound 87] | 0.000646 µM | 0.0038 µM | 0.000631 µM | 0.00708 µM |  |  |  |  |
| COc1nccc2c1C[C@]1(c3ccccc3)N=C(N)SC[C@@H]1C2 (racemic) [Compound 1] | 0.0692 µM | 0.398 µM | 0.0741 µM | 0.468 µM |  |  |  |  |
| CCOc1ncc(C2CC2)c2c1CC1(c3ccc(F)cc3F)N=C(N)SCC1C2 (racemic) [Compound 21] | 0.355 µM | 0.135 µM | 0.302 µM | 0.0977 µM |  |  |  |  |
| CCOC(=O)c1cnc(OC)c2c1C[C@H]1CSC(N)=N[C@@]1(c1ccc(F)cc1F)C2 (racemic) [Compound 24] | 0.00692 µM | 0.0138 µM | 0.00661 µM | 0.0123 µM |  |  |  |  |
| COc1ncc(C#N)c2c1CC1(c3ccc(F)cc3F)N=C(N)SCC1C2 (racemic) [Compound 23] | 0.0263 µM | 0.0759 µM | 0.0295 µM | 0.155 µM |  |  |  |  |
| COc1nccc2c1C[C@]1(c3cc(O)ccc3F)N=C(N)SC[C@@H]1C2 [Compound 36] | 0.0166 µM | 0.138 µM | 0.0158 µM | 0.0457 µM |  |  |  |  |
| COc1ncc(-c2cnccc2C)c2c1CC1(c3ccc(Cl)cc3F)N=C(N)SCC1C2 (single isomer, unassigned) [Compound 200] |  | 0.0178 µM |  | 0.437 µM | 8.09 |  | 8.05 |  |
| COc1ncc(-c2cccnc2)c2c1C[C@]1(c3ccc(F)cc3F)N=C(N)SC[C@@H]1C2 (racemic) [Compound 25] | 0.0017 µM | 0.00589 µM | 0.00191 µM | 0.012 µM |  |  |  |  |
| COc1ncc(C2CC2)c2c1C[C@]1(c3ccccc3F)N=C(N)SC[C@@H]1C2 (racemic) [Compound 20] | 0.0234 µM | 0.0245 µM | 0.0234 µM | 0.0141 µM |  |  |  |  |
| Cn1ccc2c(c1=O)C[C@]1(c3ccccc3F)N=C(N)SC[C@@H]1C2 (racemic) [Compound 34] | 1.41 µM | 6.03 µM | 1.51 µM | 6.03 µM |  |  |  |  |
| CCOc1nccc2c1CC1(c3ccc(F)cc3F)N=C(N)SCC1C2 (single isomer, unassigned) [Compound 195] |  |  |  |  | 7.09 | 6.9 | 7.09 | 6.85 |
| COc1ncc(Br)c2c1CC1(c3ccc(F)cc3F)N=C(N)SCC1C2 (racemic) [Compound 17] | 0.132 µM | 0.0309 µM | 0.145 µM | 0.0676 µM |  |  |  |  |
| COc1nccc2c1C[C@@]1(c3cc(O)ccc3F)N=C(N)SC[C@H]1C2 [Compound 183] | 3.09 µM | 4.47 µM | 3.47 µM | 6.92 µM |  |  |  |  |
| COc1nccc2c1C[C@]1(c3ccc(F)cc3F)N=C(N)SC[C@@H]1C2 [Compound 35] | 0.0138 µM | 0.0347 µM | 0.012 µM | 0.0447 µM |  |  |  |  |
| COc1ncc(-c2ccn[nH]2)c2c1C[C@]1(c3ccc(F)cc3F)N=C(N)SC[C@@H]1C2 (racemic) [Compound 29] | 0.0135 µM | 0.0355 µM | 0.0126 µM | 0.0355 µM |  |  |  |  |
| COc1nccc2c1C[C@@]1(c3ccc(F)cc3F)N=C(N)SC[C@H]1C2 [Compound 182] | 1.29 µM | 4.79 µM | 1.32 µM | 6.17 µM |  |  |  |  |
| CCOc1nccc2c1CC1(c3ccc(F)cc3F)N=C(N)SCC1C2 (single isomer, unassigned) [Compound 194] | > 8.91 µM | > 10 µM | 6.92 µM | > 10 µM |  |  |  |  |
| COc1ncc(-c2cc(C#N)ccc2Cl)c2c1C[C@]1(c3ccc(F)cc3F)N=C(N)SC[C@@H]1C2 [Compound 53] |  |  |  |  | 7.84 | 7.97 | 7.9 | 6.84 |
| COc1ncc(Br)c2c1C[C@]1(c3cc(Oc4ccccn4)ccc3F)N=C(N)SC[C@@H]1C2 [Compound 137] |  |  |  |  | 7.74 | 7.97 | 7.82 | 7.72 |
| COc1ncc(Oc2ccccn2)c2c1C[C@]1(c3ccc(F)cc3F)N=C(N)SC[C@@H]1C2 [Compound 135] |  |  |  |  | 7.6 | 7.6 | 7.62 | 7.55 |
| COc1ncc(-c2cnccc2C)c2c1C[C@@]1(c3cc(-c4cncnc4)ccc3F)N=C(N)SC[C@H]1C2 [Compound 193] |  |  |  |  | 6.01 | 5.26 | 5.9 | <5 |
